In patent publication US8748601B2, “Selective serine/threonine kinase inhibitors” (The Regents of the University of California, priority 2003, dated 2014):

Tests used:
[1] = system: rpS6 Ser235/236 phosphorylation; experiment: PMA-stimulated rpS6 Ser235/236 phosphorylation in HEK-293 cells; type: cell-based; conditions: 300 nM fmk-pa together with rapamycin, HEK-293, PMA
Protocol: (§1) Confluent HEK-293 cells in 12-well plates were deprived of serum for 2 h and subsequently treated with the indicated concentrations of inhibitors for 1 h at 37° C. After stimulation with PMA ([…]) for 30 min, cells were washed with cold PBS and harvested in either PBS lysis buffer (FIG. 9c) or hypertonic lysis buffer (FIG. 10). Click chemistry was performed with TAMRA-N3 in lysates from cells treated with fmk-pa. Proteins were analyzed by in-gel fluorescence scanning or Western blotting.
Serum-starved HEK-293 cells were treated with the indicated concentrations of rapamycin in the absence (left lanes) or presence (right lanes) of 300 nM fmk-pa for 1 h and stimulated with PMA (100 ng/mL) for 30 min. Proteins were resolved by 10% SDS-PAGE and detected by Western blotting with antibodies to phospho-Ser235/236 rpS6, phospho-Ser386 RSK, and total RSK2. […] Percent rpS6 Ser235/236 phosphorylation was determined by quantification of Western blots (e.g., FIG. 3a) relative to DMSO controls using ImageJ. Data represent mean±s.e.m. from 3 independent experiments.

Rsk [2] = experiment: Inhibition of RSK by fmk-pa (click chemistry, PMA-stimulated HEK-293 cells); type: cell-based; conditions: FIG. 9
Protocol: Click reactions were performed as previously described by Speers et al., “Profiling enzyme activities in vivo using click chemistry methods”. Chem Biol 11, 535-46 (2004). Briefly, RSK2 CTD (30 nM) pretreated with the indicated concentrations of fmk-pa, or lysates from fmk-pa-pretreated cells were incubated with TAMRA-N3 or biotin-N3 ([…]), TCEP (1 mM), CuSO4 (1 mM), and TBAT ([…]) in PBS [pH 7.4] containing 1% SDS for 1 h at room temperature.
as §1
RSK2 CTD was treated with the indicated concentrations of fmk-pa for 1 h followed by […] fmk-BODIPY for 1 h. After click conjugation with TAMRA-N3 (see Methods), proteins were resolved by 10% SDS-PAGE and detected by sequential in-gel fluorescence scanning using filters specific for TAMRA and BODIPY. […] Proteins were resolved by 10% SDS-PAGE and detected by in-gel fluorescence scanning (left) and Coomassie blue staining (right).

RSK [3] = experiment: RSK modification by fmk-pa in primary mouse macrophages (click chemistry); type: cell-based; conditions: pretreated for 1 h, LPS-stimulated
Protocol: Confluent macrophages in 12-well plates were incubated in DMEM supplemented with 20 mM Hepes [pH 7.4] and 0.5% FBS for […] prior to treatment with the indicated concentrations of fmk-pa for 1 h at 37° C. After stimulation with either PMA ([…]) or LPS ([…]) for 30 min, cells were washed with cold PBS and harvested in PBS lysis buffer. Click chemistry was performed with TAMRA-N3 and proteins were subsequently analyzed by in-gel fluorescence scanning or Western blotting.
FIG. 11. Fmk-pa and click chemistry reveal the existence of a CTD-independent pathway for RSK Ser386 phosphorylation. […] Macrophages were cultured in 0.5% serum for 20 h and subsequently treated with the indicated concentrations of fmk-pa for 1 h. Cells were stimulated with either PMA (100 ng/mL) or LPS (1 mg/mL) for 30 min and harvested in PBS. Proteins were resolved by 10% SDS-PAGE and detected by Western blotting with antibodies to phospho-Ser386 RSK and total RSK2. […] Data represent mean±s.e.m. from 3 independent experiments. […] Proteins were resolved by 10% SDS-PAGE and detected by in-gel fluorescence scanning. […] Eluted proteins were resolved by 10% SDS-PAGE and detected by Western blotting with streptavidin-HRP or antibodies to RSK1, RSK2, and phospho-Ser386 RSK.

Rsk2 CTD = molecular target: T1, Rsk2 CTD (Homo sapiens, UniProt P51812); experiment: Rsk2 CTD in vitro kinase assay, wild type; type: biochemical; conditions: read-out: IC50 for RSK2
T1 construct: We tested the halomethylketones against the Rsk2 CTD by adapting an in vitro kinase assay; made in house
T1 sequence (P51812 422-679 limits assumed): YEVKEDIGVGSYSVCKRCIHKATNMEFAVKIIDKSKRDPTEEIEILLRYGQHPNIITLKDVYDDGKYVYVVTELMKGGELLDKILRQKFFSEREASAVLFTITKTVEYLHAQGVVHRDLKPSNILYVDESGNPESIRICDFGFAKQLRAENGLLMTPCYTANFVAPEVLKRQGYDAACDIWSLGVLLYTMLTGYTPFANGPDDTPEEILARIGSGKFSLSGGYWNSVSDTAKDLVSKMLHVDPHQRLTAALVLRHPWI
Source text: We tested the halomethylketones against the Rsk2 CTD by adapting an in vitro kinase assay developed by Chrestensen and Sturgill, J, Biol. Chem. 277:27733 (2002).

C#CCNCCCn1c(C(=O)CF)c(-c2ccc(C)cc2)c2c(N)ncnc21 [propargylamine-fmk 18]
Inhibition of rpS6 phosphorylation [1]: additive inhibition | Inhibition of RSK (Rsk [2]): irreversible, selective, and potent inhibition | RSK modification in intact macrophages (RSK [3]): saturable RSK modification | IC50 (Rsk2 CTD): < 1000 nM
